Measured values from US20090306625A1, “TREATMENT SYSTEMS AND METHODS FOR RENAL-RELATED DISEASES” (AngioDynamics, Inc., priority 2007, published 2009).
Where a name gives a salt, the structure may show the parent alone.

Tests used:
[1] = system: patients with moderate to severe underlying renal dysfunction; assay: Targeted renal therapy (intra-renal infusion) with fenoldopam mesylate in patients receiving a nephrotoxic radio-contrast agent; type: in vivo, human; details: TRT (intra-renal) delivery
Text: TRT can be applied to patients with various agents in many clinical settings to mitigate acute kidney injury. For example, TRT can be applied with fenoldopam mesylate, a dopamine DI-like agonist vasodilator (CORLOPAM® brand of Fenoldopam Mesylate Injection). […] The increase in GFR can be seen in the setting of an insult to the kidneys in the form of a nephrotoxic radio-contrast agent.

septic patients = details: IV infusion 0.09 mcg/kg/min, average of one week or more, ICU; cited from earlier work

Compound: Oc1ccc(C2CNCCc3c2cc(O)c(O)c3Cl)cc1 (stereo not drawn) [fenoldopam mesylate]
- effect on blood pressure [1]: no significant effect
- increase in glomerular filtration rate (GFR) above baseline ([1]; nephrotoxic radio-contrast insult): approximately 25%
- outcome in preventing kidney failure (septic patients): improved outcomes in preventing kidney failure
